Laboratory results taken from patent US20130177531A1, “Inhibitors of Serine Proteases” (Vertex Pharmaceuticals Incorporated, priority 2005, published 2013).

Assays:
[1] = Oral bioavailability and isomer interconversion of R and S isomers at C* in rats; design: species or system male Sprague Dawley rats; details: rat; for bioavailability / half-life: 30 mg/kg
Procedure: Three groups of male Sprague Dawley rats (n=6-7/group) were orally administered a compound of formula I wherein the mixture comprised about 92% R isomer at position C* and about 8% S isomer at position C*; a mixture that was about 7% R isomer at position C* and about 93% S isomer at position C*; or a compound of formula I wherein the mixture was about 54% R isomer at position C* and about 46% S isomer at position C*; at a nominal dose of 30 mg/kg. Serial blood samples were collected up to 24 hours (hr) post dose. Derived plasma samples (100 μL) were acidified by the addition of 5 μL of formic acid to prevent in vitro interconversion. The determination of concentrations of both the R isomer and the S isomer, at position C*, in plasma and in dose solutions was conducted using a chiral liquid chromatography/mass spectrometry (LC/MS/MS, e.g., LC/tandem mass spectroscopy) method. The formulations of the solid dispersions containing either 10% of the R:S mixture, the R isomer, or the S isomer were prepared according to Table 4. […] The sodium lauryl sulfate and PVP were added to the flask containing the drug solution and were then mixed until dissolved. The mixtures were dried under Roto-vap for about 15 min. After a dry powder was obtained, the solid was then scraped from the flask and transferred to a glass container. The solid was dried for 24 hr at 55° C. in a vacuum oven with nitrogen bleed. The dry solid was then milled by mortar and pestle and was stored in a tightly capped vial. […] Male Sprague Dawley rats (Charles River Laboratories, Kingston, R.I.; n=6-7/group) were used in the study. The day before dosing, the rats were cannulated in the carotid artery for collecting blood samples. […] The experiments were performed with a parallel study design as 6 separate single dose studies as described in Table 5. […] The blood samples were collected in tubes containing potassium EDTA and were centrifuged to plasma within 15 min of collection. A diluted solution of formic acid was prepared by diluting 1 mL of formic acid with 9 mL of water. A total of 5 micro liters (μL) of this diluted formic acid was placed into each plasma tube. An aliquot of plasma (100 μL per tube) was placed into appropriately labeled tubes containing the formic acid, and the acidified plasma was stored frozen at −70° C. until analysis. The acidification step was implemented to prevent in vitro interconversion. Referring to Table 6, several bioavailability parameters for compounds undergoing reversible metabolism could be estimated by the following descriptions.

in vivo = details: male, Sprague-Dawley, rat, iv
Procedure: The intravenous pharmacokinetics of compounds of formula I were evaluated in rats and dogs. A group of 3 male Sprague-Dawley rats weighing between 250 to 300 g was administered an intravenous bolus dose of 0.95 mg/kg of an S-diastereomer of formula I, in a vehicle consisting of 15% ethanol, 10% dimethyl isosorbide, 35% PEG400 and 40% D5W (5% dextrose in water). Serial blood samples were collected in heparinized tubes at 0 (pre-dose), 0.083, 0.167, 0.25, 0.5, 1, 1.5, 2, 3, 4, 6, and 8 h, post-dose administration. […] For oral studies in rats and dogs, an S-diastereomer compound of formula I was formulated in polyvinylpyrrolidone (PVP) K30 plus 2% sodium lauryl sulfate and then dosed as an oral gavage. A group of 3 male Sprague-Dawley rats (250 to 300 g, Harlan, Md.) was dosed orally with 40 mg/kg of the compound, and a group of 3 male Beagle dogs (10.9-12.0 kg) was administered an oral dose of 13.2 mg/kg of the compound. In both oral studies, blood samples were taken at pre-dose, 0.25, 0.5, 1, 1.5, 2, 3, 4, 6, 8, 12, and 24 h following dose administration. […] Samples obtained from the rat intravenous study were subjected to a chiral liquid chromatography/mass spectrometry (LC/MS/MS) analysis, while samples of all other studies were analyzed using a non-chiral LC/MS/MS method. […]

FR+SR, estimated total bioavailability based on combined exposure to the R and S isomers following a dose of the R isomer ([1]; male, Sprague Dawley, in vivo) | mean (±SD) Tmax for the R isomer ([1]; male, Sprague Dawley, in vivo) | bioavailability ([1]; male, Sprague Dawley, in vivo) [%] | half-life ([1]; male, Sprague Dawley, in vivo) [h] | in vivo isomer conversion at position C* (R to S versus S to R) [1] | half-life (in vivo) [h] | DN AUCINF of the S isomer ([1]; male, Sprague Dawley, in vivo) [ng·h/mL] | mean (±SD) Tmax for the S isomer ([1]; male, Sprague Dawley, in vivo) | SMILES
about 98% | 2.11 (−1.24) hr | 80.6 | 2.18 | more prominent | 0.75 | – | – | CCC[C@@H](NC(=O)[C@@H]1[C@H]2CCC[C@H]2CN1C(=O)[C@@H](NC(=O)[C@@H](NC(=O)c1cnccn1)C1CCCCC1)C(C)(C)C)C(=O)C(=O)NC1CC1 [R isomer at C*, (1S,3aR,6aS)-2-[(2S)-2-[[(2S)-2-cyclohexyl-1-oxo-2-[(pyrazinylcarbonyl)amino]ethyl]amino]-3,3-dimethyl-1-oxobutyl]-N-[(1R)-1-[2-(cyclopropylamino)-1,2-dioxoethyl]butyl]octahydro-cyclopenta[c]pyrrole-1-carboxamide]
– | – | 42.9 | 3.6 | – | 1.73 | 140 | 2.52 (±2.19) hr | CCC[C@H](NC(=O)[C@@H]1[C@H]2CCC[C@H]2CN1C(=O)[C@@H](NC(=O)[C@@H](NC(=O)c1cnccn1)C1CCCCC1)C(C)(C)C)C(=O)C(=O)NC1CC1 [S isomer at C*, (1S,3aR,6aS)-2-[(2S)-2-[[(2S)-2-cyclohexyl-1-oxo-2-[(pyrazinylcarbonyl)amino]ethyl]amino]-3,3-dimethyl-1-oxobutyl]-N-[(1S)-1-[2-(cyclopropylamino)-1,2-dioxoethyl]butyl]octahydro-cyclopenta[c]pyrrole-1-carboxamide]
